Experiment [1] concerns the target T1, human, citrated, platelet-rich plasma (Homo sapiens, UniProt P05106+P08514).
T1 construct: aggregating human, citrated, platelet-rich plasma; endogenous in cells; host or cells: human platelets in citrated platelet-rich plasma
The experiment in a line: Test (a): inhibition of ADP stimulated platelet aggregation (Born). It counts as cell-based. As to conditions: ADP induced aggregation of human platelet-rich plasma; for Kb: read-out: Test (a): pA2 value indicating potency of platelet aggregation inhibition (converted). In a few lines:
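ADP added to human citrated platelet-rich plasma to build aggregation dose-response curves, repeated with increasing test compound (generally 10-^5 M to 10-^10 M). pA2 derived from the 50% response value for ADP with vs. without compound, averaged over several concentrations.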

Experiment [2] addresses T2, purified human platelet fibrinogen receptor (GPIIb/IIIa) (Homo sapiens, UniProt P05106+P08514).
T2 construct: is isolated from human platelet lysates; from tissue
Kind of experiment: Test (b): GPIIb/IIIa ELISA, inhibition of biotinylated fibrinogen binding. As to conditions: purified human platelet GPIIb/IIIa, ELISA; for IC50: read-out: Test (b): pIC50 (-log(IC50)), 50% inhibition of biotinylated fibrinogen binding to GPIIb/IIIa (converted). In a few lines:
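GPIIb/IIIa affinity-purified from human platelet lysates was coated on plates, blocked, then incubated 2 h at 30 °C with biotinylated fibrinogen ([…]) plus compound. Bound fibrinogen detected via streptavidin/biotinylated HRP and TMB, OD at 650 nm; pIC50 for 50% binding inhibition.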
For orientation: An ELISA detects its analyte on a solid surface through an enzyme-linked reagent.

Counter-ions that a name gives are not always drawn.

T1 sequence (P08514 32-887 limits assumed): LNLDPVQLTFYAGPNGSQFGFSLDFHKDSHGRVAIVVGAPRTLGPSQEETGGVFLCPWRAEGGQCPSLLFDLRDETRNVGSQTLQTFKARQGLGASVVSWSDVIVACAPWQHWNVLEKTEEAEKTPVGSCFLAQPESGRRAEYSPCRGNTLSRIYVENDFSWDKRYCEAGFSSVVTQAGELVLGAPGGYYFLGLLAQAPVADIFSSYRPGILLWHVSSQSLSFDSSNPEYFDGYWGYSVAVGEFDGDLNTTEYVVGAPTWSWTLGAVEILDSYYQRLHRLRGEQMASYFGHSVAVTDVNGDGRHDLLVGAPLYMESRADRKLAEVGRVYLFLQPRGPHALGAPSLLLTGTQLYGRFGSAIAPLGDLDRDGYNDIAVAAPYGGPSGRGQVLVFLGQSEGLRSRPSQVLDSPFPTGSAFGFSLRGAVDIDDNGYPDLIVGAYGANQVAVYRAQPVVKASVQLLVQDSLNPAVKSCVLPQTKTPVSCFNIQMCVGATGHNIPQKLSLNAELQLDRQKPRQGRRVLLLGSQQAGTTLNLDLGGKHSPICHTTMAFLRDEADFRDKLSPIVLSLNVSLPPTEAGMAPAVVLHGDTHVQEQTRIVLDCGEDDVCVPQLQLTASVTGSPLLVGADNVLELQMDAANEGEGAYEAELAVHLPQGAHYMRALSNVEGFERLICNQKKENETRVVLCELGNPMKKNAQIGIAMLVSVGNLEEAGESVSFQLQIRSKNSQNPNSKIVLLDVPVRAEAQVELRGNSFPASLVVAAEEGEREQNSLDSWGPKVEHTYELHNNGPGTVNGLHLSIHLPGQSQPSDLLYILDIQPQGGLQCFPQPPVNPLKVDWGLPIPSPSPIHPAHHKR
T1 sequence (P08514 891-1039 limits assumed): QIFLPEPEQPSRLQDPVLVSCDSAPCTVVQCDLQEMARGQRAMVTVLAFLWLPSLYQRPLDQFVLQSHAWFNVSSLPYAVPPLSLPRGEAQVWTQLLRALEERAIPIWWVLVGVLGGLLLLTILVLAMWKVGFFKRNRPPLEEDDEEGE
T1 sequence (P05106 27-788): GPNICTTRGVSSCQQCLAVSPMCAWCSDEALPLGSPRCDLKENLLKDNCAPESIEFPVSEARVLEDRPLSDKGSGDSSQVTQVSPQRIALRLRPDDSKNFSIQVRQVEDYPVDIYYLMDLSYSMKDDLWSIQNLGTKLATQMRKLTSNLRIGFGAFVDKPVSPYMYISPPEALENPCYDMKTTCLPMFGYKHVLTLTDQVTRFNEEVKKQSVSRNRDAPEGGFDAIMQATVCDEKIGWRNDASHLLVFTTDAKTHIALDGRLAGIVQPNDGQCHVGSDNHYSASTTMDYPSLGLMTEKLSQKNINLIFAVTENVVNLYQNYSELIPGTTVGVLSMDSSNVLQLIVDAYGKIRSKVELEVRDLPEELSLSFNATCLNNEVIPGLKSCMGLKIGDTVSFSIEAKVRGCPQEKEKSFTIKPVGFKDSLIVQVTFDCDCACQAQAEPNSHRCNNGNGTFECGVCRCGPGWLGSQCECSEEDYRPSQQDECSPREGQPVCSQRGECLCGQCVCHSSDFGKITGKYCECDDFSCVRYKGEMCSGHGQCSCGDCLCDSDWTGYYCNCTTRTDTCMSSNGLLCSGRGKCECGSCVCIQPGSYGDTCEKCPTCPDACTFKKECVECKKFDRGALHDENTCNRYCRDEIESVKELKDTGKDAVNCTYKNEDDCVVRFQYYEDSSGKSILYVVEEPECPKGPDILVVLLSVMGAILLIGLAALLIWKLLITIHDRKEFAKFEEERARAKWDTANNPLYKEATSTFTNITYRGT
T2 sequence (P08514 32-887 limits assumed): as the sequence (P08514 32-887 limits assumed) above
T2 sequence (P08514 891-1039 limits assumed): as the sequence (P08514 891-1039 limits assumed) above
T2 sequence (P05106 27-788): as the sequence (P05106 27-788) above

Regarding `COCCNC(=O)COc1ccc(C(=O)CN2CCN(c3ccncc3)CC2)cc1` [Example 144, 2-[4-[2-[4-(4-Pyridyl)piperazin-1-yl]acetyl]phenoxy]-N-(2-methoxymethyl)-acetamide], the Kb in experiment [1] is 5.01 µM. Moreover, the IC50 in experiment [2] is 5.01 µM.
Turning to `O=C(O)COc1ccc(C(=O)CN2CCN(c3ccnc4c3CCCC4)CC2)cc1` [Example 46, 4-[2-[4-(5,6,7,8-Tetrahydro-4-quinolinyl)piperazin-1-yl]acetyl]phenoxyacetic acid], in experiment [1], the Kb is 1 µM. In addition, the IC50 in experiment [2] was 0.0251 µM.
Take `CCOC(=O)CCCCOc1ccc(N2CCN(c3ccncc3)CC2)cc1` [Example 52]: the Kb in experiment [1] was 10 µM. Also, in experiment [2], the IC50 was more than 100 µM.
Taken in the same sequence, the figures for `O=C(O)C[C@@H](NC(=O)c1ccc(N2CCN(c3ccncc3)CC2)cc1)C(=O)NCCc1ccccc1` [Example 193] were 39.8 µM and 0.251 µM.
Taken in the same sequence, the figures for `CCn1cc(C(=O)O)c(=O)c2ccc(N3CCN(c4ccncc4)CC3)cc21` [Example 65, Ethyl-4-[4-(4-pyridyl)piperazin-1-yl]-4-quinolon-3-ylcarboxylic acid] were 6.31 µM and 2.51 µM.
Consider `O=C(O)C[C@H](NC(=O)c1ccc(N2CCN(c3ccncc3)CC2)cc1)C(=O)NCCc1ccccc1` [Example 192, (S)-3-[N-[2-Phenenthyl]carboxamido]-3-[4-[4-(4-pyridyl)piperazin-1-yl]]-benzamidopropionic acid], for which the Kb in experiment [1] was more than 100 µM. Further, in experiment [2], the IC50 is 0.251 µM.
Taken in the same sequence, the figures for `COC(=O)Cc1ccc(C(=O)CN2CCN(c3ccncc3)CC2)cc1` [Example 13, Methyl 4-[2-[4-(4-pyridyl)piperazin-1-yl]acetyl]phenylacetate] were 5.01 µM and 15.8 to 39.8 µM.
Taken in the same sequence, the figures for `COc1cc(OCC(=O)O)ccc1C(=O)CN1CCN(c2ccncc2)CC1` [Example 128, 4-[2-[4-(4-Pyridyl)piperazin-1-yl]acetyl]-3-methoxy-phenoxyacetic acid, dihydrochloride] were 0.158 µM and 0.501 µM.
On to `O=C(O)COc1cccc(C(=O)CN2CCN(c3ccncc3)CC2)c1` [Example 126, 3-[2-[4-(4-Pyridyl)piperazin-1-yl]acetyl]phenoxyacetic acid, dihydrochloride], for which the Kb in experiment [1] was 15.8 µM. Moreover, the IC50 in experiment [2] was 3.16 µM.
Taken in the same sequence, the figures for `COC(=O)CCc1ccc(OCC2CCN(c3ccncc3)CC2)cc1` [Example 161, Methyl 3-[4-[1-(4-pyridyl)piperidin-4-yl]methoxyphenyl]propionate] were 12.6 µM and 50.1 µM.
`CCCCS(=O)(=O)NC(Cc1ccc(C(=O)CN2CCN(c3ccncc3)CC2)cc1)C(=O)OC` (racemic) [Example 66, Methyl 2-RS-(n-butylsulphonylamino)-3-[4-[2-[4-(4-pyridyl)piperazin-1-yl]acetyl]phenyl]propionate]: the Kb in experiment [1] is 2 µM. Also, the IC50 in experiment [2] is 0.251 µM.
Take `O=C(O)C=Cc1ccc(CN2CCN(c3ccncc3)CC2)cc1` [Example 77, 4-[[4-(4-Pyridyl)piperazin-1-yl]methylene]cinnamic acid]: the Kb in experiment [1] is 7.94 µM. In experiment [2], the IC50 is 0.501 µM.
Taken in the same sequence, the figures for `O=C(N[C@@H](Cc1ccccc1)C(=O)O)c1ccc(N2CCN(c3ccncc3)CC2)cc1` [Example 191] were more than 100 µM and 3.98 µM.
Taken in the same sequence, the figures for `CCCCS(=O)(=O)N[C@@H](Cc1ccc(OCCCN(C)c2ccncc2)cc1)C(=O)OC` [Example 95, Methyl-2-S-(n-butylsulphonylamino)-3-[3-(N-methyl-N-4-pyridyl)aminopropoxy]phenylpropionate] were 10 µM and 7.94 µM.
Taken in the same sequence, the figures for `CS(=O)(=O)NCc1ccc(NC(=O)C2CCN(c3ccncc3)CC2)cc1` [Example 182] were 7.94 µM and 20 µM.
With `COC(=O)COc1ccc(C(=O)C(C)CN2CCN(c3ccncc3)CC2)cc1` (racemic) [Example 177, RS Methyl 4-[3-[4-(4-pyridyl)piperazin-1-yl]-2-methylpropanoyl]-phenoxyacetate], the Kb in experiment [1] is 1.58 µM. In experiment [2], the IC50 is 79.4 µM.
Taken in the same sequence, the figures for `O=C(O)COc1ccc(C(=O)CN2CCC(=Cc3cnccc3N3CCCC3)C2)cc1` [Example 108, 4-[2-[3-[4-(1-Pyrrolidinyl)pyridin-3yl]methylidene]pyrrolidin-1-yl]-acetylphenoxyacetic acid] were 0.501 µM and 1.26 µM.
Taken in the same sequence, the figures for `O=C(O)COc1cc(OCC(=O)O)cc(C(=O)CN2CCN(c3ccncc3)CC2)c1` [Example 134, Disodium 2,2'-[5-[2-[4-(4-pyridyl)piperazin-1-yl]acetyl]phenylene-1,3-dioxy]diacetate] were 15.8 µM and 25.1 µM.
Taken in the same sequence, the figures for `COC(=O)COc1ccc(C(=O)CCN2CCN(c3ccncc3)CC2)cc1` [Example 7, Methyl 4-[3-[4-(4-pyridyl)piperazin-1-yl]propanoyl]phenoxyacetate] were 0.501 µM and 3.98 to 6.31 µM.
For the molecule `COC(=O)CCc1ccc(C(=O)CN2CCN(c3ccncc3)CC2)cc1` [Example 11, Methyl 3-[4-[2-[4-(4-pyridyl)piperazin-1-yl]acetyl]phenyl]propionate], the Kb in experiment [1] is 2 µM. Besides, the IC50 in experiment [2] was 39.8 µM.
Taken in the same sequence, the figures for `COC(=O)COc1ccc(NC(=O)N2CCN(c3ccncc3)CC2)cc1` [Example 63, Methyl 4-[[4-(4-pyridyl)piperazin-1-yl]carboxamido]phenoxy acetate] were 0.126 µM and 0.316 µM.
Taken in the same sequence, the figures for `CCOC(=O)C1CCN(C(=O)CN2CCN(c3ccncc3)CC2)CC1` [Example 27, Ethyl 1-[2-[4-(4-pyridyl)piperazin-1-yl]acetyl]piperidin-4-carboxylate] were 7.94 µM and 2.51 µM.
In the case of `COC(=O)CC(C)NC(=O)c1ccc(N2CCN(c3ccncc3)CC2)cc1` (stereo not drawn) [Example 60, Methyl 3-[4-[4-(4-pyridyl)piperazin-1-yl]benzamido]butyrate], in experiment [1], the Kb is 10 µM. For the same molecule, in experiment [2], the IC50 is 15.8 µM.
Turning to `O=C(O)C[C@H](NC(=O)CNC(=O)CN1CCN(c2ccncc2)CC1)C(=O)NCCc1ccccc1` [Example 194, (S)-3-[N-(2-Phenethyl)carboxamido]-3-[N-[N-2-[4-(4-pyridyl)piperazin-1-yl]acetyl]glycyl]aminopropionic acid, trifluoroacetate], in experiment [1], the Kb was 3.98 µM. In addition, the IC50 in experiment [2] is 0.126 µM.
For `O=C(O)CC1(O)CCC(N2CCN(c3ccncc3)CC2)CC1` (stereo not drawn) [Example 102, cis-1-Hydroxy-4[4-(4-pyridyl)piperazin-1-yl]cyclohexaneacetic acid], the Kb in experiment [1] is 2 µM. Also, in experiment [2], the IC50 was 1.58 µM.
Turning to `O=C(O)COc1ccc(CCN2CCN(c3ccncc3)CC2)cc1` [Example 148, 4-[2-[4-(4-Pyridyl)piperazin-1-yl]ethyl]phenoxyacetate acid dihydrochloride], the “Test (a): pA2 value indicating potency of platelet aggregation inhibition” value in experiment [1] was found to be 7.3. Besides, in experiment [2], the “Test (b): pIC50 (-log(IC50)), 50% inhibition of biotinylated fibrinogen binding to GPIIb/IIIa” value worked out at 7.5.
Regarding `CCCCS(=O)(=O)NCc1ccc(CCN2CCN(c3ccncc3)CC2)cc1` [Example 185, N-[4-[2-[4-(4-Pyridyl)piperazin-1-yl]ethyl]phenyl]methyl-1-butanesulphonamide], the Kb in experiment [1] was 3.98 µM. Further, the IC50 in experiment [2] was 15.8 µM.

The record behind these values is patent publication US5750754A, “Heterocyclic compounds” (Zeneca Limited, priority 1993, dated 1998).
